Assay results taken from patent publication US20060089375A1, “Pyrazolo[3,4-b] pyridine compounds, and their use as phosphodiesterase inhibitors” (priority 2002, published 2006).

Key:
[1] = molecular target: T1, PDE4B (human recombinant) (Homo sapiens, UniProt Q07343); assay: Inhibition of PDE4B activity: radioactive SPA or IMAP Fluorescence Polarisation (FP) assay; format: biochemical; conditions: PDE4B inhibitory activity, one reading or average of ca. 2-6 readings, read-out: PDE4B pIC50 (± about 0.5) (converted)
T1 construct: made in house
Source text: Human recombinant PDE4B, in particular the 2B splice variant thereof (HSPDE4B2B), is disclosed in WO 94/20079 and also M. M. McLaughlin et al., “A low Km, rolipram-sensitive, cAMP-specific phosphodiesterase from human brain: cloning and expression of cDNA, biochemical characterisation of recombinant protein, and tissue distribution of mRNA”, J. Biol. Chem., 1993, 268, 6470-6476. For example, in Example 1 of WO 94/20079, human recombinant PDE4B is described as being expressed in the PDE-deficient yeast Saccharomyces cerevisiae strain GL62, e.g. after induction by addition of 150 uM CuSO4, and 100,000×g supernatant fractions of yeast cell lysates are described for use in the harvesting of PDE4B enzyme.
The ability of compounds to inhibit catalytic activity at PDE4B or 4D (human recombinant), PDE3 (from bovine aorta), PDE5 (human recombinant) or PDE6 (from bovine retina) was determined by Scintillation Proximity Assay (SPA) in 96-well format. Test compounds (preferably as a solution in DMSO, e.g. 0.5 to 1 microlitre (ul) volume) were preincubated at ambient temperature (room temperature, e.g. 19-23° C.) in Wallac Isoplates (code 1450-514) with PDE enzyme in 50 mM Tris-HCl buffer pH 7.5, 8.3 mM MgCl2, 1.7 mM EGTA, 0.05% (w/v) bovine serum albumin for 10-30 minutes (usually 30 minutes). The enzyme concentration was adjusted so that no more than 20% hydrolysis of the substrate defined below occurred in control wells without compound, during the incubation. For the PDE3, PDE4B and PDE4D assays, [5′,8-^3H]Adenosine 3′,5′-cyclic phosphate (Amersham Pharmacia Biotech, code TRK.559; or Amersham Biosciences UK Ltd, Pollards Wood, Chalfont St Giles, Buckinghamshire HP8 4SP, UK) was added to give 0.05 uCi per well and ˜10 nM final concentration. For the PDE5 and PDE6 assays, [8-^3H]Guanosine 3′,5′-cyclic phosphate (Amersham Pharmacia Biotech, code TRK.392) was added to give 0.05 uCi per well and ˜36 nM final concentration. Plates, e.g. containing approx. 100 ul volume of assay mixture, were mixed on an orbital shaker for 5 minutes and incubated at ambient temperature for 1 hour. Phosphodiesterase SPA beads (Amersham Pharmacia Biotech, code RPNQ 0150) were added ([…] per well) to terminate the assay. Plates were sealed and shaken and allowed to stand at ambient temperature for 35 minutes to 1 hour (preferably 35 minutes) to allow the beads to settle. Bound radioactive product was measured using a WALLAC TRILUX 1450 Microbeta scintillation counter. For inhibition curves, 10 concentrations (1.5 nM-30 uM) of each compound were assayed. Curves were analysed using ActivityBase and XLfit (ID. Business Solutions Limited, 2 Ocean Court, Surrey Research Park, Guildford, Surrey GU2 7QB, United Kindgom) Results were expressed as pIC50 values.
The ability of compounds to inhibit catalytic activity at PDE4B (human recombinant) or PDE4D (human recombinant) was determined by IMAP Fluorescence Polarisation ([…]) assay (IMAP Explorer kit, available from Molecular Devices Corporation, Sunnydale, Calif., USA; Molecular Devices code: R^8062) in 384-well format. The IMAP FP assay is able to measure PDE activity in an homogenous, non-radioactive assay format. The FP assay uses the ability of immobilised trivalent metal cations, coated onto nanoparticles (tiny beads), to bind the phosphate group of Fl-AMP that is produced on the hydrolysis of fluorescein-labelled (Fl) cyclic adenosine mono-phosphate (Fl-cAMP) to the non-cyclic Fl-AMP form. […] Binding of Fl-AMP product to the beads (coated with the immobilised trivalent cations) slows the rotation of the bound Fl-AMP and leads to an increase in the fluorescence polarisation ratio of parallel to perpendicular light. Inhibition of the PDE reduces/inhibits this signal increase. […]

[2] = Particle size analysis of micronised material by laser diffraction (Malvern Mastersizer); format: physicochemical
Source text: For pharmaceutical compositions suitable and/or adapted for inhaled administration, it is preferred that the compound or salt of formula (I) is in a particle-size-reduced form, and more preferably the size-reduced form is obtained or obtainable by micronisation. Micronisation usually involves subjecting the compound/salt to collisional and abrasional forces in a fast-flowing circular or spiral/vortex-shaped airstream often including a cyclone component. The preferable particle size (e.g. D50 value) of the size-reduced (e.g. micronised) compound or salt is about 0.5 to about 10 microns, e.g. about 1 to about 5 microns (e.g. as measured using laser diffraction). For example, it is preferable for the compound or salt of formula (I to have a particle size defined by: a D10 of about 0.3 to about 3 microns (e.g. about 1 micron), and/or a D50 of about 1 to about 5 microns (e.g. about 2-5 or about 2-3 microns), and/or a D90 of about 2 to about 20 microns or about 3 to about 10 microns (e.g. about 5-8 or about 5-6 microns); for example as measured using laser diffraction. The laser diffraction measurement can use a dry method (suspension of compound/salt in airflow crosses laser beam) or a wet method [suspension of compound/salt in liquid dispersing medium, such as isooctane or (e.g. if compound soluble in isooctane) 0.1% Tween 80 in water, crosses laser beam]. With laser diffraction, particle size is preferably calculated using the Fraunhofer calculation; and/or preferably a Malvern Mastersizer or Sympatec apparatus is used for measurement.
Particle size analysis of Example 518 micronised material from Procedure 2, using laser diffraction measurement with Malvern Mastersizer longbed version, dispersing medium 0.1% Tween 80 in water, stir rate 1500 rpm, 3 mins sonification prior to final dispersion and analysis, 300 RF Reverse Fourier) lens, Fraunhofer calculation with Malvern software: • material from collection vessel: D10=0.97 microns, D50=3.86 microns, D90=12.64 microns. • material from inside walls of cyclone: D10=0.95 microns, D50=3.42 microns, D90=9.42 microns.

[3] = tested on: LPS-induced pulmonary neutrophilia and emetic episodes in the conscious ferret; assay: In Vivo Assay 4: Therapeutic Index of PDE4 inhibitors in the conscious ferret (LPS neutrophilia and emesis)
Description: PDE4 inhibitors are prepared for oral (p.o.) administration by dissolving in a fixed volume (1 ml) of acetone and then adding cremophor to 20% of the final volume. Acetone is evaporated by directing a flow of nitrogen gas onto the solution. Once the acetone is removed, the solution is made up to final volume with distilled water. LPS is dissolved in phosphate buffered saline.
Male ferrets (Mustela Pulorius Furo, weighing 1-2 kg) are transported and allowed to acclimatise for not less than 7 days. The diet comprises SDS diet C pelleted food given ad lib with Whiskers™ cat food given 3 times per week. The animals are supplied with pasteurised animal grade drinking water changed daily.
PDE4 inhibitors are administered orally (p.o.), using a dose volume of 1 ml/kg. Ferrets are fasted overnight but allowed free access to water. The animals are orally dosed with vehicle or PDE 4 inhibitor using a 15 cm dosing needle that is passed down the back of the throat into the oesophagus. After dosing, the animals are returned to holding cages fitted with perspex doors to allow observation, and given free access to water. The animals are constantly observed and any emetic episodes (retching and vomiting) or behavioural changes are recorded. The animals are allowed access to food 60-90 minutes after p.o. dosing.
Thirty minutes after oral dosing with compound or vehicle control, the ferrets are placed into sealed perspex containers and exposed to an aerosol of LPS (30 μg/ml) for 10 minutes. Aerosols of LPS are generated by a nebuliser (DeVilbiss, USA) and this is directed into the perspex exposure chamber. Following a 10-minute exposure period, the animals are returned to the holding cages and allowed free access to water, and at a later stage, food. General observation of the animals continues for a period of at least 2.5 hours post oral dosing. All emetic episodes and behavioural changes are recorded.
Six hours after LPS exposure the animals are killed by overdose of sodium pentobarbitone administered intraperitoneally. […] From this, the total number of neutrophils in the BAL sample is determined. […]

[4] = micronised material Procedure 2, material from collection vessel
[5] = micronised material Procedure 2, material from inside walls of cyclone

T1 sequence (Q07343 1-564 isoform Q07343-2): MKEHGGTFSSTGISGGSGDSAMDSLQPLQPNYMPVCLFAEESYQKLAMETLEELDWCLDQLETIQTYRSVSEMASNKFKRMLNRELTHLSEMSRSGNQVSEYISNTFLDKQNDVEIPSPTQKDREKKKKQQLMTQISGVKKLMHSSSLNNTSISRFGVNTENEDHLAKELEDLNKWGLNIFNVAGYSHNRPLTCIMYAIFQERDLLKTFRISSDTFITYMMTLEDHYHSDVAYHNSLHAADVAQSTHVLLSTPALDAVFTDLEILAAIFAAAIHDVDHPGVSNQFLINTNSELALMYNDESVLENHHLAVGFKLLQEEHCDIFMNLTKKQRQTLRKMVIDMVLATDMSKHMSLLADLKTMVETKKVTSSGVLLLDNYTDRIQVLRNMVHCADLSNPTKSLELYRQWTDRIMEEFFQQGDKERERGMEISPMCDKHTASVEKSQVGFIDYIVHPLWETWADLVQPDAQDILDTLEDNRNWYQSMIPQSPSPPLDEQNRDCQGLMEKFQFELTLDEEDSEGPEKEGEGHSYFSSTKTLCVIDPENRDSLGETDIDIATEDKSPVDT

Structure (SMILES): CCn1ncc2c(NC3CCOCC3)c(C(=O)NCc3ccc(C)c(C)c3)cnc21 [Example 518, N-[(3,4-dimethylphenyl)methyl]-1-ethyl-4-(tetrahydro-2H-pyran-4-ylamino)-1H-pyrazolo[3,4-b]pyridine-5-carboxamide]
- IC50 [1]: 0.1 to 6.31 nM
- particle size D10 [2, 4]: 0.97 microns
- particle size D50 [2, 4]: 3.86 microns
- particle size D90 [2, 4]: 12.64 microns
- particle size D10 [2, 5]: 0.95 microns
- particle size D50 [2, 5]: 3.42 microns
- particle size D90 [2, 5]: 9.42 microns

Structure (SMILES): CCn1ncc2c(NC3CCC(=O)CC3)c(C(=O)NCc3cccc(Cl)c3Cl)cnc21 [Example 677, N-[(2,3-Dichlorophenyl)methyl]-1-ethyl-4-[(4-oxocyclohexyl)amino]-1H-pyrazolo[3,4-b]pyridine-5-carboxamide]
- IC50 [1]: 0.1 to 6.31 nM

Structure (SMILES): CCn1ncc2c(NC3CCC(=O)CC3)c(C(=O)NCc3ccc(C)c(Cl)c3)cnc21 [Example 678, N-[(3-Chloro-4-methylphenyl)methyl]-1-ethyl-4-[(4-oxocyclohexyl)amino]-1H-pyrazolo[3,4-b]pyridine-5-carboxamide]
- IC50 [1]: 0.1 to 6.31 nM

Structure (SMILES): CCn1ncc2c(NC3CCC(=O)CC3)c(C(=O)NCc3ccc(Cl)cc3C)cnc21 [Example 679, N-[(4-Chloro-2-methylphenyl)methyl]-1-ethyl-4-[(4-oxocyclohexyl)amino]-1H-pyrazolo[3,4-b]pyridine-5-carboxamide]
- IC50 [1]: 0.1 to 6.31 nM

Structure (SMILES): CCn1ncc2c(NC3CCC(=NO)CC3)c(C(=O)NCc3ccc(C)cc3C)cnc21 (centres unmarked) [Example 680, N-[(2,4-Dimethylphenyl)methyl]-1-ethyl-4-{[4-(hydroxyimino)cyclohexyl]amino}-1H-pyrazolo[3,4-b]pyridine-5-carboxamide]
- IC50 [1]: 0.1 to 6.31 nM

Structure (SMILES): CCn1ncc2c(NC3CCC(=NO)CC3)c(C(=O)NCc3ccc(C)c(C)c3)cnc21 (centres unmarked) [Example 681, N-[(3,4-dimethylphenyl)methyl]-1-ethyl-4-{[4-(hydroxyimino)cyclohexyl]amino}-1H-pyrazolo[3,4-b]pyridine-5-carboxamide]
- IC50 [1]: 0.1 to 6.31 nM

Structure (SMILES): CCn1ncc2c(NC3CCC(=NO)CC3)c(C(=O)NCc3cccc(Cl)c3Cl)cnc21 (centres unmarked) [Example 682, N-[(2,3-Dichlorophenyl)methyl]-1-ethyl-4-{[4-(hydroxyimino)cyclohexyl]amino}-1H-pyrazolo[3,4-b]pyridine-5-carboxamide]
- IC50 [1]: 0.1 to 6.31 nM

Structure (SMILES): CCn1ncc2c(NC3CCC(=NO)CC3)c(C(=O)NCc3ccc(C)c(Cl)c3)cnc21 (centres unmarked) [Example 683, N-[(3-Chloro-4-methylphenyl)methyl]-1-ethyl-4-{[4-(hydroxyimino)cyclohexyl]amino}-1H-pyrazolo[3,4-b]pyridine-5-carboxamide]
- IC50 [1]: 0.1 to 6.31 nM

Structure (SMILES): CCn1ncc2c(NC3CCC(=NO)CC3)c(C(=O)NCc3ccc(Cl)cc3C)cnc21 (centres unmarked) [Example 684, N-[(4-Chloro-2-methylphenyl)methyl]-1-ethyl-4-{[4-(hydroxyimino)cyclohexyl]amino}-1H-pyrazolo[3,4-b]pyridine-5-carboxamide]
- IC50 [1]: 0.1 to 6.31 nM

Structure (SMILES): CCn1ncc2c(NC3CCC(=NO)CC3)c(C(=O)NCc3ccc(OC(F)F)cc3)cnc21 (centres unmarked) [Example 685, N-({4-[(Difluoromethyl)oxy]phenyl}methyl)-1-ethyl-4-{[4-(hydroxyimino)cyclohexyl]amino}-1H-pyrazolo[3,4-b]pyridine-5-carboxamide]
- IC50 [1]: 0.1 to 6.31 nM

Structure (SMILES): CCn1ncc2c(NC3CCC(=NO)CC3)c(C(=O)NCc3ccc(C(F)(F)F)cc3)cnc21 (centres unmarked) [Example 686, 1-Ethyl-4-{[4-(hydroxyimino)cyclohexyl]amino}-N-{[4-(trifluoromethyl)phenyl]methyl}-1H-pyrazolo[3,4-b]pyridine-5-carboxamide]
- IC50 [1]: 0.1 to 6.31 nM

Structure (SMILES): O=C(Nc1c(Cl)cncc1Cl)c1ccc(OC(F)F)c(OCC2CC2)c1 [roflumilast]
- Therapeutic index (TI), ferret Assay 4 ([3]; D20 emesis / D50 neutrophilia, ferret p.o.): 1.02
- D20 for emesis ([3]; p.o., ferret, dose giving 20% incidence of emesis): 0.5 mg/kg
- D50 for neutrophilia ([3]; p.o., ferret, dose giving 50% inhibition of LPS-induced pulmonary neutrophilia): 0.49 mg/kg
